Data taken from patent publication US4094966A, “Iodobenzene derivatives and X-ray contrast media containing the same” (priority 1974, dated 1978).

How the values were obtained:
[1] = Osmolality determination (FISKE osmometer); type: physicochemical; settings: solutions containing 28% iodine; methylglucamine salts; extrapolation from successive dilutions
Method: Osmolality is determined by extrapolation of the values obtained on successive dilutions of solutions containing 28% or 38% iodine.
Osmolality readings are made with a FISKE Model 230/D/330 D osmometer. This apparatus indicates this measurement as milliosmoles per kg of solution. Its operation is based on the principles of cryoscopy. The determinations were made with solutions containing 28% iodine.

[2] = tested on: mice; test: Acute toxicity determination, intravenous toxicity in mice; type: in vivo, mice (Swiss origin, IOPS mice of OFI strain); settings: 24 hours
Method: Intravenous toxicity determination was effected in Swiss origin, IOPS mice of OFI strain.
Each dosage level was injected to a lot of 10 mice comprising 5 male and 5 female mice.
Injections were made manually, in the caudal vein, at a rate of 2 ml/minute.
Death rate during the 24 hours after injection was recorded.

[3] = tested on: femoral artery; test: Effect on the femoral rate of flow (peripheral vasodilatation); type: in vivo, mongrels
Method: This test was carried out in Nembutal-anesthetized male or female 7-12 mongrels.
Nembutal was used at a dosage of 30 mg/kg, with Vetranquil pre-medication, (overall intravenous injection of 2.5 mg), respiration was spontaneous.
Rate of flow variations were recorded at the level of the right or left fermoral artery, by means of a Statham electromagnetic sensor.
The injections were made in a collateral of the fermoral artery, downstream of the sensor, by means of a catheter mounted by the retrograde route, so as not to perturb the blood flow.
The injections were made under a constant volume of 1.5 ml administered within 3-5 seconds.
The same volume of an iostonic sodium chloride solution was also injected.

[4] = Biliary clearance test in cats; type: in vivo; parameters: scale not given here
Method: This test was conducted in male or female adult cats weighing 3-4 kg.
The test material was injected intravenously, at a dosage of 0.10 g/kg iodine at the level of the internal saphenous vein. Clearance of the material was monitored by X-ray control.
X-ray pictures visualizing the gall bladder and the bladder were taken at the following times: 30 minutes, 1 hour, 2 hours, 3 hours, 4 hours, 5 hours, 6 hours.

[5] = 1.5 ml into collateral of femoral artery, 28% I, Mgl salt
[6] = i.v., 0.10 g I/kg, 28% I, Mgl salt

Compound | Osmolality [1] | Acute toxicity in mice, i.v. ([2]; 28% I, Mgl salt) | Peripheral vasodilatation, femoral rate of flow [3, 5] | Biliary clearance in cat, i.v. [4, 6] | further results
CNC(=O)c1c(I)c(NC(=O)CCCNC(=O)c2c(I)c(C(=O)NCCO)c(I)c(N(C)C(C)=O)c2I)c(I)c(C(=O)O)c1I [Compound 7, 2,4,6-triiodo-3-N-methylcarbamyl-5-(2,4,6-triiodo-3-N-hydroxyethylcarbamyl-5-N-methylacetamido-benzoyl)γ-aminobutyrylamino-benzoic acid] | 525 mosm/kg | 5 grams I/kg | ++ | 0 | 
CNC(=O)c1c(I)c(C(=O)NCCCCCC(=O)Nc2c(I)cc(I)c(C(=O)O)c2I)c(I)c(N(C)C(C)=O)c1I [Compound 10, 2,4,6-triiodo-5-(2,4,6-triiodo-3-N-methylcarbamyl-5-N-methylacetamido-benzoyl)-ε-aminocaproylamino-benzoic acid] | 420 mosm/kg | 1.5 grams I/kg | ++++ | ++++ | 
CNC(=O)c1c(I)c(NC(=O)CCCNC(=O)c2c(I)cc(I)c(N(C)C(C)=O)c2I)c(I)c(C(=O)O)c1I [Compound 11, 2,4,6-triiodo-3-N-methylcarbamyl-5-(2,4,6-triiodo-3-N-methylacetamido-benzoyl)-γ-aminobutyrylaminobenzoic acid] | 390 mosm/kg | 2.3 grams I/kg | ++++ | +++ | 
CNC(=O)c1c(I)c(NC(=O)CNC(=O)c2c(I)c(NC(=O)CNC(=O)c3c(I)c(NC(C)=O)c(I)c(C(=O)NC)c3I)c(I)c(N(C)C(C)=O)c2I)c(I)c(C(=O)O)c1I [Compound 16, 2,4,6-triiodo-3-N-methylcarbamyl-5-[2,4,6-triiodo-3-N-methylacetamido-5-(2,4,6-triiodo-3-N-methylcarbamyl-5-acetamido-benzoyl)glycylamino-benzoyl]-glycylamino-benzoic acid] | 250 mosm/kg |  |  |  | Peripheral vasodilatation, femoral rate of flow ([3]; in vivo): +; Biliary clearance in cat, i.v. ([4]; in vivo, iv): 0
CNC(=O)c1c(I)c(NC(=O)CNC(=O)c2c(I)c(NC(=O)CNC(=O)c3c(I)c(C(=O)NC)c(I)c(N(C)C(C)=O)c3I)c(I)c(N(C)C(C)=O)c2I)c(I)c(C(=O)O)c1I [Compound 17, 2,4,6-triiodo-3-N-methylcarbamyl-5-[2,4,6-triiodo-3-N-methylacetamido-5-(2,4,6-triiodo-3-N-methylcarbamyl-5-N-methylacetamido-benzoyl)glycyl-aminobenzoyl]-glycyl-amino-benzoic acid] | 200 mosm/kg |  |  |  | Peripheral vasodilatation, femoral rate of flow ([3]; in vivo): ++; Biliary clearance in cat, i.v. ([4]; in vivo, iv): 0
CNC(=O)c1c(I)c(NC(=O)CNC(=O)c2c(I)cc(I)c(N(C)C(C)=O)c2I)c(I)c(C(=O)O)c1I [Compound 18, 2,4,6-triiodo-3-N-methylcarbamyl-5-(2,4,6-triiodo-3-N-methylacetamido-benzoyl-glycyl)-amino-benzoic acid] | 390 mosm/kg |  | ++++ | ++++ | 
CNC(=O)c1c(I)c(C(=O)NCC(=O)Nc2c(I)cc(I)c(C(=O)O)c2I)c(I)c(N(C)C(C)=O)c1I [Compound 19, 2,4,6-triiodo-5-(2,4,6-triiodo-3-N-methylcarbamyl-5-N-methylacetamido-benzoyl) glycylamino-benzoic acid] | 500 mosm/kg | 4 grams I/kg | ++++ | ++++ | 
CC(=O)Nc1c(I)c(NC(=O)CNC(=O)c2c(I)c(NC(C)=O)c(I)c(N(C)C(C)=O)c2I)c(I)c(C(=O)O)c1I [Compound 20, 2,4,6-triiodo-3-acetamido-5-(2,4,6-triiodo-3-N-methylacetamido-5-acetamido-benzoyl)-glycylaino-benzoic acid] | 755 mosm/kg |  |  |  | Acute toxicity in mice, i.v. ([2]; 28 and 38% I, Na salt): 7.5 grams I/kg; Peripheral vasodilatation, femoral rate of flow ([3]; 1.5 ml into collateral of femoral artery, 28 and 38% I, Na salt): +
CNC(=O)c1c(I)c(NC(C)=O)c(I)c(C(=O)NCC(=O)N(C)c2c(I)cc(I)c(C(=O)O)c2I)c1I [Compound 21, 2,4,6-triiodo-3-(2,4,6-triiodo-3-N-methylcarbamyl-5-acetamido-benzoyl)glycyl-N-methylamino-benzoic acid] | 580 mosm/kg |  |  |  | Acute toxicity in mice, i.v. ([2]; 20% I, Mgl salt): 4-5 grams I/kg; Peripheral vasodilatation, femoral rate of flow ([3]; 1.5 ml into collateral of femoral artery, 20% I, Mgl salt): ++++; Biliary clearance in cat, i.v. ([4]; i.v., 0.10 g I/kg, 20% I, Mgl salt): +++
CNC(=O)c1c(I)c(C(=O)NC(C)C(=O)Nc2c(I)cc(I)c(C(=O)O)c2I)c(I)c(N(C)C(C)=O)c1I (stereo not drawn) [Compound 23, 2,4,6-triiodo-3-(2,4,6-triiodo-3-N-methyl-carbamyl-5-N-methylacetamido-benzoyl)-α-aminoproionylamino-benzoic acid] | 535 mosm/kg | 3.5 grams I/kg | +++ | ++++ | 
CNC(=O)c1c(I)c(C(=O)NCC(=O)Nc2c(I)c(NC(C)=O)c(I)c(C(=O)O)c2I)c(I)c(N(C)C(C)=O)c1I [Compound 25, 2,4,6-triiodo-3-acetamido-5-(2,4,6-triiodo-3-N-methylcarbamyl-5-N-methylacetamido-benzoyl)glycylamino-benzoic acid] | 925 mosm/kg |  |  |  | Acute toxicity in mice, i.v. ([2]; 34% I, Na salt): 9 grams I/kg; Peripheral vasodilatation, femoral rate of flow ([3]; 1.5 ml into collateral of femoral artery, 34% I, Na salt): ++; Biliary clearance in cat, i.v. ([4]; i.v., 0.10 g I/kg, 34% I, Na salt): 0
CNC(=O)c1c(I)c(NC(=O)CNC(=O)c2c(I)c(NC(=O)C(O)C(O)C(O)C(O)CO)c(I)c(C(=O)NC)c2I)c(I)c(C(=O)O)c1I (centres unmarked) [Compound 35, 2,4,6-triiodo-3-N-methylcarbamyl-5-(2,4,6-triiodo-3-N-methylcarbamyl-5-gluconylamino-benzoyl)glycylamino-benzoic acid] |  | 8 grams I/kg | + | 0 | 
CNC(=O)c1c(I)c(NC(=O)C(O)C(O)C(O)C(O)CO)c(I)c(C(=O)NCC(=O)Nc2c(I)c(C(=O)O)c(I)c(C(=O)NCCO)c2I)c1I (centres unmarked) [Compound 36, 2,4,6-triiodo-3-hydroxyethylcarbamyl-5-(2,4,6-triiodo-3-N-methylcarbamyl-5-glyconylamino-benzoyl) glycylamino-benzoic acid] |  | 8 grams I/kg | ++ | 0 | 
CNC(=O)c1c(I)c(NC(C)=O)c(I)c(C(=O)NCC(=O)N(C)c2c(I)c(C(=O)O)c(I)c(C(=O)NCCO)c2I)c1I [Compound 38, 2,4,6-triiodo-3-N-hydroxyethylcarbamyl-5-(2,4,6-triiodo-3-N-methylcarbamyl-5-acetamido-benzoyl)-glycyl-N-methylamino-benzoic acid] | 635 mosm/kg |  |  |  | 
CC(=O)Nc1c(I)c(NC(C)=O)c(I)c(C(=O)O)c1I [d, 2,4,6-Triiodo-3,5-bis-(acetamido)-benzoic acid, reference compound] |  |  |  |  | Acute toxicity in mice, i.v. ([2]; 38% I, mixed Mgl and Na salt): 5.7 grams I/kg; Peripheral vasodilatation, femoral rate of flow ([3]; in vivo): +++; Biliary clearance in cat, i.v. ([4]; i.v., 0.10 g I/kg, 38% I, mixed Mgl and Na salt): 0
O=C(CCCCC(=O)Nc1c(I)cc(I)c(C(=O)O)c1I)Nc1c(I)cc(I)c(C(=O)O)c1I [e, 3,3'-Adipoyldiimino-bis(2,4,6-triiodobenzoic) acid, reference compound] |  | 2 grams I/kg | ++++ |  | Biliary clearance in cat, i.v. ([4]; in vivo, iv): ++++
